Reference: patent publication US20100015141A1, “4-PHENOXY-6-ARYL-1H-PYRAZOLO[3,4-D]PYRIMIDINE AND N-ARYL-6-ARYL-1H-PYRAZOLO[3,4-D]PYRIMIDIN-4-AMINE COMPOUNDS, THEIR USE AS MTOR KINASE AND PI3 KINASE INHIBITORS, AND THEIR SYNTHESES” (Wyeth, priority 2008, published 2010)

Legend:
Format in all cases: biochemical
PI3K-α = PI3K-α (Homo sapiens, UniProt P42336); assay: PI3K-alpha fluorescence polarization assay; conditions: 20 μM PIP2, 25 μM ATP
Experimental: (§1) The reaction buffer was 20 mM HEPES pH7.5, 2 mM MgCl2, 0.05% CHAPS, and 0.01% βME (added fresh). The substrate solution was 40 μM PIP2 (diC8, Echelon, Salt Lake City Utah cat #P-4508, 1 mM in water) and 50 μM ATP in the reaction buffer. Nunc 384-well black polypropylene fluorescent plates were used for PI3K assays. The assay is run by putting 9.5 μl of freshly diluted enzyme in the reaction buffer per well, adding 0.5 μl of diluted drug or DMSO, and mixing. Then 10 μl of the substrate solution is added to each well to start the reaction. A final concentration of 20 μM PIP2 and 25 μM ATP in the reaction was used. Reactions were allowed to proceed for 30-60 minutes at room temperature. After 30-60 minutes, 20 μl of a solution of 10 nM TAMRA detector (Red detector probe-Echelon) and 2.5 uM of GST-murineGRP (1.5 mg/ml in 17% glycerol) was added per well to stop the reaction. The resulting solution was mixed well and allowed to stand for 90-110 minutes before reading plate. Assay Plates were read on Perkin-Elmer Envision plate readers with appropriate filters for Tamra [BODIPY-TMRI(1,3,4,5)P4]. Data obtained were used to calculate enzymatic activity and enzyme inhibition by inhibitor compounds. It is important to keep Red probe solutions dark. This procedure is adapted from Echelon Biosciences Inc procedure for their PI3-Kinase fluorescence polarization activity Assay kit Product number K-1100.

mTOR = mTOR (Homo sapiens, UniProt P42345); assay: mTOR enzyme assay (DELFIA, His6-S6K phosphorylation); design: FLAG; conditions: 100 μM ATP, 1.25 μM His6-S6K
PI3K-γ = PI3K-γ (Homo sapiens, UniProt P48736); assay: PI3K-gamma fluorescence polarization assay; conditions: 20 μM PIP2, 25 μM ATP
Experimental: as §1

PI3K-α, sequence (P42336 whole entry, species assumed): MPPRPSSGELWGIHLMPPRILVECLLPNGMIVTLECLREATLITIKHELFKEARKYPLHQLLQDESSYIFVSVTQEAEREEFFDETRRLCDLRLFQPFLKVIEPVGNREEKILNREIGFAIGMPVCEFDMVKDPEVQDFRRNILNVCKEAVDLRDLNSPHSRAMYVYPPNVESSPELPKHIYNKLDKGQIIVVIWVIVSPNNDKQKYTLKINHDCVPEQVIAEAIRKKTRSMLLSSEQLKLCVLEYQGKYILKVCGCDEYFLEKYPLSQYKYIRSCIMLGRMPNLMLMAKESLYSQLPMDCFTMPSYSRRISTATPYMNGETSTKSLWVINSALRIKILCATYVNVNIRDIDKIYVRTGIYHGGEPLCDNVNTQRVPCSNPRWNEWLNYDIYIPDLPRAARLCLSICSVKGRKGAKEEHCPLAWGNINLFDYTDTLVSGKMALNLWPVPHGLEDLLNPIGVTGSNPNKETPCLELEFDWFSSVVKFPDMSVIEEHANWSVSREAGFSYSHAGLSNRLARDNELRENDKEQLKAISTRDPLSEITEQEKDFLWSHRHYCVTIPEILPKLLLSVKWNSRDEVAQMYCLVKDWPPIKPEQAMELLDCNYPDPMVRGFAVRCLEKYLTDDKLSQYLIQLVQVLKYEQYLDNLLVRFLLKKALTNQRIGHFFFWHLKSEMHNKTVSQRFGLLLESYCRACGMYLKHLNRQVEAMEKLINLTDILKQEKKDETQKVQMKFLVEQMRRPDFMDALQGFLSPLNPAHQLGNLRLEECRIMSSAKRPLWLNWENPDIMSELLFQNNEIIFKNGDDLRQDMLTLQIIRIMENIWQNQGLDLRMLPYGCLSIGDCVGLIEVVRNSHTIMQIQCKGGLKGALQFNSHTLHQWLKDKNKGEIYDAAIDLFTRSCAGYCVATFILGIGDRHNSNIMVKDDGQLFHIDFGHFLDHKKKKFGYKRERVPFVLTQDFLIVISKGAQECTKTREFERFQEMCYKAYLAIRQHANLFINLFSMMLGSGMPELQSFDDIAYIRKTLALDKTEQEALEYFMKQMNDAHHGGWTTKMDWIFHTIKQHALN
PI3K-α, sequence (P27986 whole entry partner, species assumed): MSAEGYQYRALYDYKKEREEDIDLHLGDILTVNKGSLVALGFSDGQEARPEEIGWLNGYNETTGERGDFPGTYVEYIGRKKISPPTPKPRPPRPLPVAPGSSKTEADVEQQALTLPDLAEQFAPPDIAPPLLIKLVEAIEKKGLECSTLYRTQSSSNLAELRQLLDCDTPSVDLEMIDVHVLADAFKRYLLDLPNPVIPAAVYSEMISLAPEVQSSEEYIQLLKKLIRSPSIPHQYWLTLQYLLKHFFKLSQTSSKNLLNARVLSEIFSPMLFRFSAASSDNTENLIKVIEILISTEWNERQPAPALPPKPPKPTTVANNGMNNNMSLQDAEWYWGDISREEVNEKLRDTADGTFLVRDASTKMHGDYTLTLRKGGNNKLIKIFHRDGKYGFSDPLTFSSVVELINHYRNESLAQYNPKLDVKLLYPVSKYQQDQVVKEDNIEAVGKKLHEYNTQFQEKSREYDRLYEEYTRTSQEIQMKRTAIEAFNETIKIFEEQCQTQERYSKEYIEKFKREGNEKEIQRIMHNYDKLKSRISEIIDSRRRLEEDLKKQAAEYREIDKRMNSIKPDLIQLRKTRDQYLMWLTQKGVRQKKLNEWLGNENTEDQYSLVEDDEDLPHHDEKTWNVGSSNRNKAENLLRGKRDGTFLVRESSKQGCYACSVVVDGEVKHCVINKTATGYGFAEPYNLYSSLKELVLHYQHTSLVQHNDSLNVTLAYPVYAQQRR
PI3K-γ, sequence (P48736 whole entry, species assumed): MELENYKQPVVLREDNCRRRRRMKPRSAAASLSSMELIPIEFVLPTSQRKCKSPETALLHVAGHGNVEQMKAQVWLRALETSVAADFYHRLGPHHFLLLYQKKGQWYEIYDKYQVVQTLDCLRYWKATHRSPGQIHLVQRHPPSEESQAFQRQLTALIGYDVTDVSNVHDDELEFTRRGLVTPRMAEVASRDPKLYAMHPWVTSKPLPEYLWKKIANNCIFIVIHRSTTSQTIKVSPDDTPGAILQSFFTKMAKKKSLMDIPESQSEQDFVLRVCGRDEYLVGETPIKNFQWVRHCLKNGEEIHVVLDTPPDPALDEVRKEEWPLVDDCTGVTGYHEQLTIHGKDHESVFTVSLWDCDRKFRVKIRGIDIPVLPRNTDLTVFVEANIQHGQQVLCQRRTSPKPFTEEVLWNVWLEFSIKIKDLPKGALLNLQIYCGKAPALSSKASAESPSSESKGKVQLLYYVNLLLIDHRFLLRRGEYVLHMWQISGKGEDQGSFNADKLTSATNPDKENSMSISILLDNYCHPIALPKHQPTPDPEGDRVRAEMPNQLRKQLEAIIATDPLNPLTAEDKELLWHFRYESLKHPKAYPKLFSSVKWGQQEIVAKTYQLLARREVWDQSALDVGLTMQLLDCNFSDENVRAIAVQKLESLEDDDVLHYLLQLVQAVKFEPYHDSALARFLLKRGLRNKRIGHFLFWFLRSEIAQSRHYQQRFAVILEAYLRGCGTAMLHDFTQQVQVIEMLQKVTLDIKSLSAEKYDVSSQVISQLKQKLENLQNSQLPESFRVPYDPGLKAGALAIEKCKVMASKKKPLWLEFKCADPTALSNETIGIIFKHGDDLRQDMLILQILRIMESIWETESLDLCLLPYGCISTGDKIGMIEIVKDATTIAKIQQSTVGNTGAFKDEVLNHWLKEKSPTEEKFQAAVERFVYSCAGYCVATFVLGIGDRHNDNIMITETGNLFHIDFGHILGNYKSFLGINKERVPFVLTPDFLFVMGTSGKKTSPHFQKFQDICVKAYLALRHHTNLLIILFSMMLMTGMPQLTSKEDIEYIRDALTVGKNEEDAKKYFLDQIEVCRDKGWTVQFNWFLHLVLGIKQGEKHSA

Compound | IC50 (PI3K-α) [nM] | IC50 (mTOR) [nM] | IC50 (PI3K-γ) [nM]
CN(C)C1CCN(C(=O)c2ccc(NC(=O)Nc3ccc(Nc4nc(Nc5ccc(C(N)=O)cc5)c5cnn(C)c5n4)cc3)cc2)C1 (stereo not drawn) [Example 83, 4-({6-[(4-{[(4-{[3-(Dimethylamino)pyrrolidin-1-yl]carbonyl}phenyl)carbamoyl]amino}phenyl)amino]-1-methyl-1H-pyrazolo[3,4-d]pyrimidin-4-yl}amino)benzamide] | 0.3 | 5 | 7
Cn1cc(-c2nc(Nc3ccc(C(N)=O)cc3)c3cnn(C)c3n2)cn1 [Example 62, 4-{[1-methyl-6-(1-methyl-1H-pyrazol-4-yl)-1H-pyrazolo[3,4-d]pyrimidin-4-yl]amino}benzamide] | 603 | 4800 | 1590
CN1CCC(NC(=O)Nc2ccc(Nc3nc(Nc4ccc(C(N)=O)cc4)c4cnn(C)c4n3)cc2)CC1 [Example 91, 4-({1-Methyl-6-[(4-{[(1-methylpiperidin-4-yl)carbamoyl]amino}phenyl)amino]-1H-pyrazolo[3,4-d]pyrimidin-4-yl}amino)benzamide] | 198 | 2000 | 3170
Cn1ncc2c(Nc3ccc(C(N)=O)cc3)nc(-c3ccoc3)nc21 [Example 65, 4-{[6-(3-furyl)-1-methyl-1H-pyrazolo[3,4-d]pyrimidin-4-yl]amino}benzamide] | 314 | 1300 | 1710
Cn1ncc2c(Oc3ccc4[nH]ccc4c3)nc(-c3cccc(OCc4ccccc4Cl)c3)nc21 [Example 69, 6-{3-[(2-chlorobenzyl)oxy]phenyl}-4-(1H-indol-5-yloxy)-1-methyl-1H-pyrazolo[3,4-d]pyrimidine] | 10800 | > 20000 | > 10000
Cn1ncc2c(Nc3ccc(C(N)=O)cc3)nc(-c3ccccc3)nc21 [Example 11, 4-[(1-methyl-6-phenyl-1H-pyrazolo[3,4-d]pyrimidin-4-yl)amino]benzamide] | 167 | 950 | 1580
CC(=O)Nc1ccc(Oc2nc(-c3ccc4[nH]ccc4c3)nc3c2cnn3C)cc1 [Example 55, N-(4-{[6-(1H-indol-5-yl)-1-methyl-1H-pyrazolo[3,4-d]pyrimidin-4-yl]oxy}phenyl)acetamide] | 387 | 570 | 600
CN1CCN(C(=O)c2ccc(NC(=O)Nc3ccc(Nc4nc(Nc5ccc(C(N)=O)cc5)c5cnn(C)c5n4)cc3)cc2)CC1 [Example 81, 4-{[1-Methyl-6-({4-[({4-[(4-methylpiperazin-1-yl)carbonyl]phenyl}carbamoyl)amino]phenyl}amino)-1H-pyrazolo[3,4-d]pyrimidin-4-yl]amino}benzamide] | 0.4 | 17 | 6
CN1Cc2cc(Nc3nc(Nc4ccc(NC(=O)Nc5cccnc5)cc4)nc4c3cnn4C)ccc2C1=O [Example 95, 1-[4-({1-Methyl-4-[(2-methyl-1-oxo-2,3-dihydro-1H-isoindol-5-yl)amino]-1H-pyrazolo[3,4-d]pyrimidin-6-yl}amino)phenyl]-3-pyridin-3-ylurea] | 6 | 68 | 148
CN(C)CCN(C)C(=O)c1ccc(NC(=O)Nc2ccc(Nc3nc(Nc4ccc(C(N)=O)cc4)c4cnn(C)c4n3)cc2)cc1 [Example 92, 4-({[4-({4-[(4-Carbamoylphenyl)amino]-1-methyl-1H-pyrazolo[3,4-d]pyrimidin-6-yl}amino)phenyl]carbamoyl}amino)-N-[2-(dimethylamino)ethyl]-N-methylbenzamide] | < 0.3 | 9 | 6
CNC(=O)Nc1ccc(-c2nc(Nc3ccc(C(N)=O)cc3)c3cnn(C)c3n2)cc1 [Example 77, 4-(1-methyl-6-(4-(3-methylureido)phenyl)-1H-pyrazolo[3,4-d]pyrimidin-4-ylamino)benzamide] | 493 | 1700 | 2900
Cn1ncc2c(Oc3ccc4[nH]ccc4c3)nc(-c3ccoc3)nc21 [Example 68, 6-(3-furyl)-4-(1H-indol-5-yloxy)-1-methyl-1H-pyrazolo[3,4-d]pyrimidine] | 1050 | > 20000 | 1030
CC(C)c1ccc(-c2nc(Oc3ccc4[nH]ccc4c3)c3cnn(C)c3n2)cc1 [Example 58, 4-(1H-indol-5-yloxy)-6-(4-isopropylphenyl)-1-methyl-1H-pyrazolo[3,4-d]pyrimidine] | 3800 | > 20000 | 10600
CC(=O)Nc1ccc(Oc2nc(-c3ccccc3)nc3c2cnn3C)cc1 [Example 74, N-{4-[(1-methyl-6-phenyl-1H-pyrazolo[3,4-d]pyrimidin-4-yl)oxy]phenyl}acetamide] | 637 | 5500 | 1340
CN(CCO)C(=O)c1ccc(NC(=O)Nc2ccc(Nc3nc(Nc4ccc(C(N)=O)cc4)c4cnn(C)c4n3)cc2)cc1 [Example 85, 4-({[4-({4-[(4-Carbamoylphenyl)amino]-1-methyl-1H-pyrazolo[3,4-d]pyrimidin-6-yl}amino)phenyl]carbamoyl}amino)-N-(2-hydroxyethyl)-N-methylbenzamide] | 0.4 | 9 | 11
CNC(=O)Nc1cccc(-c2nc(Nc3ccc(C(N)=O)cc3)c3cnn(C)c3n2)c1 [Example 78, 4-(1-methyl-6-(3-(3-methylureido)phenyl)-1H-pyrazolo[3,4-d]pyrimidin-4-ylamino)benzamide] | 277 | 775 | 3600
Cn1ncc2c(Oc3ccc4[nH]ccc4c3)nc(-c3cccc(Cl)c3)nc21 [Example 66, 6-(3-chlorophenyl)-4-(1H-indol-5-yloxy)-1-methyl-1H-pyrazolo[3,4-d]pyrimidine] | 762 | > 20000 | 1160
Cn1ncc2c(Nc3ccc(C(N)=O)cc3)nc(Nc3ccc(NC(=O)Nc4ccc(C(=O)N5CCOCC5)cc4)cc3)nc21 [Example 84, 4-[(1-Methyl-6-{[4-({[4-(morpholin-4-ylcarbonyl)phenyl]carbamoyl}amino)phenyl]amino}-1H-pyrazolo[3,4-d]pyrimidin-4-yl)amino]benzamide] | 0.7 | 7 | 5
Cn1ncc2c(Nc3ccc(C(N)=O)cc3)nc(-c3ccc(-c4ccccc4)cc3)nc21 [Example 60, 4-[(6-biphenyl-4-yl-1-methyl-1H-pyrazolo[3,4-d]pyrimidin-4-yl)amino]benzamide] | 8550 | > 20000 | > 10000
CN(C)C(=O)c1ccc(Nc2nc(Nc3ccc(NC(=O)Nc4cccnc4)cc3)nc3c2cnn3C)cc1 [Example 93, N,N-Dimethyl-4-{[1-methyl-6-({4-[(pyridin-3-ylcarbamoyl)amino]phenyl}amino)-1H-pyrazolo[3,4-d]pyrimidin-4-yl]amino}benzamide] | 2.1 | 12 | 75
Cn1ncc2c(Nc3ccc(C(N)=O)cc3)nc(Nc3ccc(NC(=O)NC4CC4)cc3)nc21 [Example 88, 4-{[6-({4-[(Cyclopropylcarbamoyl)amino]phenyl}amino)-1-methyl-1H-pyrazolo[3,4-d]pyrimidin-4-yl]amino}benzamide] | 27 | 44 | 263
